US20220177477A1 (Central China Normal University, priority 2019, published 2022)

Biological target: T1, TRKA (Homo sapiens, UniProt P04629)
T1 construct: purchased Carna Biosciences 08-186
Assay: In vitro biochemical HTRF KinEASE kinase inhibition, TRKA
Details: not given

T1 sequence (P04629 33-796): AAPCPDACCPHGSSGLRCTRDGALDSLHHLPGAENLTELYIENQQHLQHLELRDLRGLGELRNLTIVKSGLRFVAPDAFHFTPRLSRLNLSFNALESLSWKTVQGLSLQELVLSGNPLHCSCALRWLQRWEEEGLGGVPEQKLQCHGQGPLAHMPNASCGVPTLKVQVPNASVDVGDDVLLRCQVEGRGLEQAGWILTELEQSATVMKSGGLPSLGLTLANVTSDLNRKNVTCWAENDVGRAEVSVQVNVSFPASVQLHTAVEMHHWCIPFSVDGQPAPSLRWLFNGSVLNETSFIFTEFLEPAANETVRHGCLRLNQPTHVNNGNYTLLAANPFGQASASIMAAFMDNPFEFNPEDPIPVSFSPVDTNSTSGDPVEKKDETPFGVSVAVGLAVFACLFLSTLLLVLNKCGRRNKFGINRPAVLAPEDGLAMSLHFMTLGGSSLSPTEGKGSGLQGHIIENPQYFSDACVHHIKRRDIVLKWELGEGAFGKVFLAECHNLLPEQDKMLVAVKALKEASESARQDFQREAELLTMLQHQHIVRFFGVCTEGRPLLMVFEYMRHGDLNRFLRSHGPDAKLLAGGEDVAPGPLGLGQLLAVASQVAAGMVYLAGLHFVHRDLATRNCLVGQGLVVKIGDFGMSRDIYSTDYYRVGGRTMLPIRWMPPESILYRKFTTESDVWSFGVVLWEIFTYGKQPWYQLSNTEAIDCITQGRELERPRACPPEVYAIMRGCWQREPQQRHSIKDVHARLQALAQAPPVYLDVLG

`CC(Nc1ccn2ncc(-c3cn[nH]c3)c2n1)c1cc(F)ccc1OCC#N` (stereo not drawn) [Compound b11-36, 2-(2-(1-((3-(1H-pyrazol-4-yl)pyrazolo [1,5-a]pyrimidin-5-yl)amino)ethyl)-4-fluorophenoxy) acetonitrile] gave an IC50 of 88.6 nM.

Same assay, conditions: wild-type kinase, final ATP 3.727 μmol/L; read-out: TRKA IC50

Point of comparison: `CC(Nc1ccn2ncc(-c3cnn(C4CCOCC4)c3)c2n1)c1cc(F)ccc1OCCCF` (stereo not drawn) [Compound a25-35, N-(1-(5-fluoro-2-(3-fluoropropoxy)phenyl)ethyl)-3-(1-(tetrahydro-2H-pyran-4-yl)-1H-pyrazol-4-yl) pyrazolo [1,5-a] pyrimidin-5-amine], IC50 24.8 nM. Against it:
- CC(Nc1ccn2ncc(-c3cnn(CC(F)F)c3)c2n1)c1cc(F)ccc1OCC(F)F (stereo not drawn) [Compound 6, N-(1-(2-(2,2-difluoroethoxy)-5-fluorophenyl)ethyl)-3-(1-(2,2-difluoroethyl)-1H-pyrazol-4-yl) pyrazolo [1,5-a] pyrimidin-5-amine] — 2-fold lower, 12.4 nM
- CC(Nc1ccn2ncc(-c3cnn(C4CCCCC4O)c3)c2n1)c1cc(F)ccc1OCC(F)F (stereo not drawn) [Compound 9, 2-(4-(5-((1-(2-(2,2-difluoroethoxy)-5-fluorophenyl)ethyl)amino)pyrazolo [1,5-a]pyrimidin-3-yl)-1H-pyrazol-1-yl) cyclohexan-1-ol] — 2.2-fold lower, 11.4 nM
- CC(Nc1ccn2ncc(-c3cnn(C4CCOCC4)c3)c2n1)c1cc(F)ccc1OCC(F)F (stereo not drawn) [Compound 11, N-(1-(2-(2,2-difluoroethoxy)-5-fluorophenyl)ethyl)-3-(1-(tetrahydro-2H-pyran-4-yl)-1H-pyrazol-4-yl) pyrazolo [1,5-a] pyrimidin-5-amine] — 2.1-fold lower, 11.8 nM
- CC(Nc1ccn2ncc(-c3cnn(S(C)(=O)=O)c3)c2n1)c1cc(F)ccc1OCC(F)F (stereo not drawn) [Compound 13, N-(1-(2-(2,2-difluoroethoxy)-5-fluorophenyl)ethyl)-3-(1-(methylsulfonyl)-1H-pyrazol-4-yl) pyrazolo [1,5-a] pyrimidin-5-amine] — 2.4-fold lower, 10.4 nM
- CC(Nc1ccn2ncc(-c3cnn(C)c3)c2n1)c1cc(F)cc(F)c1OCC(F)F (stereo not drawn) [Compound 15, N-(1-(2-(2,2-difluoroethoxy)-3,5-difluorophenyl)ethyl)-3-(1-methyl-1H-pyrazol-4-yl) pyrazolo [1,5-a] pyrimidin-5-amine] — 2.1-fold lower, 11.7 nM
- CC(Nc1ccn2ncc(-c3cnn(C)c3)c2n1)c1ccccc1OCC(F)F (stereo not drawn) [Compound 17, N-(1-(2-(2,2-difluoroethoxy)phenyl)ethyl)-3-(1-methyl-1H-pyrazol-4-yl) pyrazolo [1,5-a] pyrimidin-5-amine] — within 1.5-fold, 18.3 nM
- CC(Nc1ccn2ncc(-c3cnn(C)c3)c2n1)c1cc(F)ccc1O (stereo not drawn) [Compound a1-2, 4-fluoro-2-(1-((3-(1-methyl-1H-pyrazol-4-yl)pyrazolo [1,5-a]pyrimidin-5-yl)amino)ethyl) phenol] — 2.8-fold lower, 9 nM
- CC(Nc1ccn2ncc(-c3cnn(C4CCCCC4O)c3)c2n1)c1cc(F)ccc1O (stereo not drawn) [Compound a3-4, 4-fluoro-2-(1-((3-(1-(2-hydroxycyclohexyl)-1H-pyrazol-4-yl)pyrazolo [1,5-a]pyrimidin-5-yl)amino)ethyl) phenol] — within 1.5-fold, 24.2 nM
- CC(Nc1ccn2ncc(-c3cnn(CCO)c3)c2n1)c1cc(F)ccc1OC(F)F (stereo not drawn) [Compound a5-9, 2-(4-(5-((1-(2-(difluoromethoxy)-5-fluorophenyl)ethyl)amino)pyrazolo [1,5-a]pyrimidin-3-yl)-1H-pyrazol-1-yl) ethan-1-ol] — 6.2-fold lower, 4 nM
- CC(Nc1ccn2ncc(-c3cnn(C4CCOCC4)c3)c2n1)c1cc(F)ccc1OC(F)F (stereo not drawn) [Compound a6-10, N-(1-(2-(difluoromethoxy)-5-fluorophenyl)ethyl)-3-(1-(tetrahydro-2H-pyran-4-yl)-1H-pyrazol-4-yl) pyrazolo [1,5-a] pyrimidin-5-amine] — within 1.5-fold, 26.5 nM
- CCOc1ccc(F)cc1C(C)Nc1ccn2ncc(-c3cnn(C4CCOCC4)c3)c2n1 (stereo not drawn) [Compound a7-12, N-(1-(2-ethoxy-5-fluorophenyl)ethyl)-3-(1-(tetrahydro-2H-pyran-4-yl)-1H-pyrazol-4-yl) pyrazolo [1,5-a] pyrimidin-5-amine] — within 1.5-fold, 23 nM
- CC(Nc1ccn2ncc(-c3cnn(C(F)F)c3)c2n1)c1cc(F)ccc1OCCO (stereo not drawn) [Compound a8-13, 2-(2-(1-((3-(1-(difluoromethyl)-1H-pyrazol-4-yl)pyrazolo [1,5-a]pyrimidin-5-yl)amino)ethyl)-4-fluorophenoxy) ethanol] — 1.6-fold higher, 40.9 nM
- COCCOc1ccc(F)cc1C(C)Nc1ccn2ncc(-c3cnn(C4CCOCC4)c3)c2n1 (stereo not drawn) [Compound a9-14, N-(1-(5-fluoro-2-(2-methoxyethoxy)phenyl)ethyl)-3-(1-(tetrahydro-2H-pyran-4-yl)-1H-pyrazol-4-yl) pyrazolo [1,5-a] pyrimidin-5-amine] — 2.7-fold higher, 67.8 nM
- C[C@@H](Nc1ccn2ncc(-c3cnn(CC#N)c3)c2n1)c1cc(F)ccc1OCCF [Compound a12-19, (R)-2-(4-(5-((1-(5-fluoro-2-(2-fluoroethoxy)phenyl)ethyl)amino)pyrazolo [1,5-a]pyrimidin-3-yl)-1H-pyrazol-1-yl) acetonitrile] — 7.5-fold lower, 3.3 nM
- CC(Nc1ccn2ncc(-c3cnn(C(C)C)c3)c2n1)c1cc(F)ccc1OCCF (stereo not drawn) [Compound a13-20, N-(1-(5-fluoro-2-(2-fluoroethoxy)phenyl)ethyl)-3-(1-isopropyl-1H-pyrazol-4-yl) pyrazolo [1,5-a] pyrimidin-5-amine] — within 1.5-fold, 20.2 nM
- CC(Nc1ccn2ncc(-c3cnn(C4CC4)c3)c2n1)c1cc(F)ccc1OCCF (stereo not drawn) [Compound a14-21, 3-(1-cyclopropyl-1H-pyrazol-4-yl)-N-(1-(5-fluoro-2-(2-fluoroethoxy)phenyl)ethyl) pyrazolo [1,5-a] pyrimidin-5-amine] — 2.1-fold lower, 12 nM
- CC(Nc1ccn2ncc(-c3cnn(CCO)c3)c2n1)c1cc(F)ccc1OCCF (stereo not drawn) [Compound a15-22, 2-(4-(5-((1-(5-fluoro-2-(2-fluoroethoxy)phenyl)ethyl)amino)pyrazolo [1,5-a]pyrimidin-3-yl)-1H-pyrazol-1-yl) ethanol] — 3.1-fold lower, 7.9 nM
- CC(Nc1ccn2ncc(-c3cnn(CC(F)F)c3)c2n1)c1cc(F)ccc1OCCF (stereo not drawn) [Compound a16-23, 3-(1-(2,2-difluoroethyl)-1H-pyrazol-4-yl)-N-(1-(5-fluoro-2-(2-fluoroethoxy)phenyl)ethyl) pyrazolo [1,5-a] pyrimidin-5-amine] — 2.8-fold lower, 9 nM
- CC(Nc1ccn2ncc(-c3cnn(C4CCCC4O)c3)c2n1)c1cc(F)ccc1OCCF (stereo not drawn) [Compound a17-24, 2-(4-(5-((1-(5-fluoro-2-(2-fluoroethoxy)phenyl)ethyl)amino)pyrazolo [1,5-a]pyrimidin-3-yl)-1H-pyrazol-1-yl) cyclopentan-1-ol] — 3.3-fold lower, 7.6 nM
- CC(Nc1ccn2ncc(-c3cnn(C4CCCCC4O)c3)c2n1)c1cc(F)ccc1OCCF (stereo not drawn) [Compound a18-25, 2-(4-(5-((1-(5-fluoro-2-(2-fluoroethoxy)phenyl)ethyl)amino)pyrazolo [1,5-a]pyrimidin-3-yl)-1H-pyrazol-1-yl) cyclohexan-1-ol] — 2.8-fold lower, 9 nM
- CC(Nc1ccn2ncc(-c3cnn(C4CCOCC4)c3)c2n1)c1cc(F)ccc1OCCF (stereo not drawn) [Compound a19-26, N-(1-(5-fluoro-2-(2-fluoroethoxy)phenyl)ethyl)-3-(1-(tetrahydro-2H-pyran-4-yl)-1H-pyrazol-4-yl) pyrazolo [1,5-a] pyrimidin-5-amine] — 1.6-fold lower, 15.8 nM
- C[C@@H](Nc1ccn2ncc(-c3cnn(C4CCCCO4)c3)c2n1)c1cc(F)ccc1OCCF (stereo partly drawn) [Compound a20-27, N-((R)-1-(5-fluoro-2-(2-fluoroethoxy)phenyl)ethyl)-3-(1-(tetrahydro-2H-pyran-2-yl)-1H-pyrazol-4-yl) pyrazolo [1,5-a] pyrimidin-5-amine] — 8.9-fold lower, 2.8 nM
- CC(=O)n1cc(-c2cnn3ccc(NC(C)c4cc(F)ccc4OCCF)nc23)cn1 (stereo not drawn) [Compound a21-28, 1-(4-(5-((1-(5-fluoro-2-(2-fluoroethoxy)phenyl)ethyl)amino)pyrazolo [1,5-a]pyrimidin-3-yl)-1H-pyrazol-1-yl) ethanone] — 4.7-fold lower, 5.3 nM
- CC(Nc1ccn2ncc(-c3cnn(S(C)(=O)=O)c3)c2n1)c1cc(F)ccc1OCCF (stereo not drawn) [Compound a22-29, N-(1-(5-fluoro-2-(2-fluoroethoxy)phenyl)ethyl)-3-(1-(methylsulfonyl)-1H-pyrazol-4-yl) pyrazolo [1,5-a] pyrimidin-5-amine] — 1.7-fold lower, 14.6 nM
- CC(Nc1ccn2ncc(-c3cnn(C)c3)c2n1)c1cc(F)ccc1OCC1CCOCC1 (stereo not drawn) [Compound a28-43, N-(1-(5-fluoro-2-((tetrahydro-2H-pyran-4-yl)methoxy)phenyl)ethyl)-3-(1-methyl-1H-pyrazol-4-yl) pyrazolo [1,5-a] pyrimidin-5-amine] — 4.4-fold higher, 110 nM
- CC(Nc1ccn2ncc(-c3cn[nH]c3)c2n1)c1cc(F)ccc1O (stereo not drawn) [Compound b1-1, 2-(1-((3-(1H-pyrazol-4-yl)pyrazolo [1,5-a]pyrimidin-5-yl)amino)ethyl)-4-fluorophenol] — 2.6-fold lower, 9.5 nM
- COc1ccc(F)cc1C(C)Nc1ccn2ncc(-c3cn[nH]c3)c2n1 (stereo not drawn) [Compound b2-5, N-(1-(5-fluoro-2-methoxyphenyl)ethyl)-3-(1H-pyrazol-4-yl) pyrazolo [1,5-a]pyrimidin-5-amine] — 1.6-fold lower, 15.2 nM
- COCCOc1ccc(F)cc1C(C)Nc1ccn2ncc(-c3cn[nH]c3)c2n1 (stereo not drawn) [Compound b6-15, N-(1-(5-fluoro-2-(2-methoxyethoxy)phenyl)ethyl)-3-(1H-pyrazol-4-yl) pyrazolo [1,5-a] pyrimidin-5-amine] — within 1.5-fold, 24 nM
- CC(Nc1ccn2ncc(-c3cn[nH]c3)c2n1)c1cc(F)ccc1OCC1CC1 (stereo not drawn) [Compound b12-37, N-(1-(2-(cyclopropylmethoxy)-5-fluorophenyl)ethyl)-3-(1H-pyrazol-4-yl) pyrazolo [1,5-a] pyrimidin-5-amine] — 5.9-fold lower, 4.2 nM
- CC(Nc1ccn2ncc(-c3cn[nH]c3)c2n1)c1cc(F)ccc1OCC1CCOCC1 (stereo not drawn) [Compound b15-42, N-(1-(5-fluoro-2-((tetrahydro-2H-pyran-4-yl)methoxy)phenyl)ethyl)-3-(1H-pyrazol-4-yl) pyrazolo [1,5-a] pyrimidin-5-amine] — 2.2-fold higher, 55 nM
- CC(Nc1ccn2ncc(-c3cn[nH]c3)c2n1)c1cc(F)ccc1OCCN1CCOCC1 (stereo not drawn) [Compound b16-44, N-(1-(5-fluoro-2-(2-morpholinoethoxy)phenyl)ethyl)-3-(1H-pyrazol-4-yl) pyrazolo [1,5-a] pyrimidin-5-amine] — 15-fold higher, 364 nM
